The subject of one experiment is U937 cells. Kind of experiment: U937 cell inhibition assay (WST-1 cell viability). It counts as cell-based. As for the experimental part:
(§1) Cancer cell lines (U937 and HUT) growing in log phase were harvested and seeded at 1000-2000 cells/well (100 μl final volume) into 96-well tissue culture plates. Following 24 h of growth cells were treated with Compound. Plates were then re-incubated for a further 72-96 h before a WST-1 cell viability assay was conducted according to the suppliers (Roche Applied Science) instructions.
(§2) Data were expressed as a percentage inhibition of the control, measured in the absence of inhibitor, as follows: % inhibition=100−[(S^i/S^o)×100] where S^i is the signal in the presence of inhibitor and S^o is the signal in the presence of DMSO.
(§3) Dose response curves were generated from 8 concentrations (top final concentration 10 μM, with 3-fold dilutions), using 6 replicates.
(§4) IC50 values were determined by non-linear regression analysis, after fitting the results to the equation for sigmoidal dose response with variable slope (% activity against log concentration of Compound), using Graphpad Prism software.
(Tetrazolium assays rely on reduction of a dye to a coloured formazan, in cell work by metabolically active cells.)

The target of experiment [1] is T1, histone deacetylase activity (HeLa nuclear extract).
T1 construct: Histone deacetylase activity from crude nuclear extract derived from HeLa cells was used for screening
Description: Histone deacetylase activity (Biomol Fluor de Lys HDAC fluorescent activity assay). The following applies: Fluor de Lys substrate. It is filed as biochemical. The procedure:
The ability of compounds to inhibit histone deacetylase activities was measured using the commercially available HDAC fluorescent activity assay from Biomol. In brief, the Fluor de Lys™ substrate, a lysine with an epsilon-amino acetylation, is incubated with the source of histone deacetylase activity (HeLa nuclear extract) in the presence or absence of inhibitor. Deacetylation of the substrate sensitises the substrate to Fluor de Lys™ developer, which generates a fluorophore. Thus, incubation of the substrate with a source of HDAC activity results in an increase in signal that is diminished in the presence of an HDAC inhibitor.
Data are expressed as a percentage of the control, measured in the absence of inhibitor, with background signal being subtracted from all samples, as follows: % activity=[(S^i−B)/(S^o−B)]×100 where S^i is the signal in the presence of substrate, enzyme and inhibitor, S^o is the signal in the presence of substrate, enzyme and the vehicle in which the inhibitor is dissolved, and B is the background signal measured in the absence of enzyme.
(§5) IC50 values were determined by non-linear regression analysis, after fitting the results of eight data points to the equation for sigmoidal dose response with variable slope (% activity against log concentration of Compound), using Graphpad Prism software.
Histone deacetylase activity from crude nuclear extract derived from HeLa cells was used for screening. The preparation, purchased from 4C (Seneffe, Belgium), was prepared from HeLa cells harvested whilst in exponential growth phase. The nuclear extract was prepared according to the methodology described by J. D. Dignam, Nucl. Acid. Res., 1983, 11, 1475-1489, snap frozen in liquid nitrogen and stored at −80° C. The final buffer composition was 20 mM Hepes, 100 mM KCl, 0.2 mM EDTA, 0.5 mM DTT, 0.2 mM PMSF and 20% (v/v) glycerol.

The next experiment deals with HeLa cells. Description: HeLa cell inhibition assay (sulphorhodamine B cell viability). It is filed as cell-based. The following applies: 72 h, SRB. As for the experimental part: HeLa cells growing in log phase were harvested and seeded at 1000 cells/well (200 μl final volume) into 96-well tissue culture plates. Following 24 h of cell growth cells were treated with Compounds (final concentration of 20 μM). Plates were then re-incubated for a further 72 h before a sulphorhodamine B (SRB) cell viability assay was conducted according to the methodology described by Skehan et al, J. Natl. Canc. Inst., 1990, 82, 1107-1112.
Data were expressed as a percentage inhibition of the control, measured in the absence of inhibitor, as follows:— % inhibition=100−[(S^i/S^o)×100] where S^i is the signal in the presence of inhibitor and S^o is the signal in the presence of DMSO.
as §5

A further experiment concerns HUT cells. Kind of experiment: HUT cell inhibition assay (WST-1 cell viability). It is filed as cell-based. Conditions: 72-96 h. The procedure:
as §1, §2, §3, §4

Consider `CC(C)C[C@H](NC1CCN(c2ncc(C(=O)NO)cn2)CC1)C(=O)OC1CCCC1` [Example 1, Cyclopentyl N-{1-[5-(hydroxycarbamoyl)pyrimidin-2-yl]piperidin-4-yl}-L-leucinate], for which the IC50 is less than 330 nM in the experiment with U937 cells (Homo sapiens, U-937, 72-96 h); 101 to 1000 nM in experiment [1]; greater than 3300 nM in the experiment with HeLa cells (Homo sapiens); 331 to 3300 nM with HUT cells.

For the compound `O=C(NO)c1cnc(N2CC3C(CN[C@H](C(=O)OC4CCCC4)C4CCCCC4)C3C2)nc1` (stereo partly drawn) [Example 14, Cyclopentyl (2S)-cyclohexyl[({3-[5-(hydroxycarbamoyl)pyrimidin-2-yl]-3-azabicyclo[3.1.0]hex-6-yl}methyl)amino]acetate], the IC50 was 331 to 3300 nM with U937 cells (Homo sapiens, U-937, 72-96 h); less than 100 nM in experiment [1]; 331 to 3300 nM in the experiment with HeLa cells (Homo sapiens); 331 to 3300 nM with HUT cells.

As to `O=C(NO)c1cnc(N2CCC(CN[C@H](C(=O)OC3CCCC3)C3CCCCC3)CC2)nc1` [Example 18, Cyclopentyl (2S)-cyclohexyl[({1-[5-(hydroxycarbamoyl)pyrimidin-2-yl]piperidin-4-yl}methyl)amino]acetate], the IC50 in the experiment with U937 cells (Homo sapiens, U-937, 72-96 h) is less than 330 nM; in experiment [1], less than 100 nM; in the experiment with HeLa cells (Homo sapiens) it was 331 to 3300 nM; in the experiment on HUT cells, 331 to 3300 nM.

With `CC(C)C[C@H](NCc1ccc(CNC2CCN(c3ncc(C(=O)NO)cn3)CC2)cc1)C(=O)OC1CCCC1` [Example 27, Cyclopentyl N-{4-[({1-[5-(hydroxycarbamoyl)pyrimidin-2-yl]piperidin-4-yl}amino)methyl]benzyl}-L-leucinate], the IC50 is less than 330 nM in the experiment with U937 cells (Homo sapiens, U-937, 72-96 h); less than 100 nM in experiment [1]; 331 to 3300 nM with HeLa cells (Homo sapiens); less than 330 nM in the experiment with HUT cells.

For the compound `O=C(NO)c1cnc(N2CCC(NCc3ccc(CN[C@H](C(=O)OC4CCCC4)c4ccccc4)cc3)CC2)nc1` [Example 29], the half-inhibitory concentration (IC50) is less than 330 nM in the experiment with U937 cells (Homo sapiens, U-937, 72-96 h); less than 100 nM in experiment [1]; 331 to 3300 nM in the experiment on HeLa cells (Homo sapiens); 331 to 3300 nM with HUT cells.

Turning to `O=C(NO)c1cnc(N2CCC(NCc3ccc(CN[C@H](C(=O)OC4CCCC4)c4ccccc4)cc3)CC2)nc1` [Example 31], the IC50 is less than 330 nM in the experiment on U937 cells (72-96 h), 101 to 1000 nM in experiment [1], 331 to 3300 nM in the experiment with HeLa cells and 331 to 3300 nM in the experiment with HUT cells.

`O=C(NO)c1cnc(N2CCC(NCc3ccc(CN[C@H](C(=O)OC4CCCC4)c4ccccc4)cc3)CC2)nc1` [Example 33]: the IC50 in the experiment on U937 cells (72-96 h) is less than 330 nM; in experiment [1], less than 100 nM; with HeLa cells, 331 to 3300 nM; with HUT cells, less than 330 nM.

For `O=C(NO)c1cnc(N2CC3C(CNCc4ccc(CN[C@H](C(=O)OC5CCCC5)c5ccccc5)cc4)C3C2)nc1` (stereo partly drawn) [Example 35, Cyclopentyl (2S)-[(4-{[({3-[5-(hydroxycarbamoyl)pyrimidin-2-yl]-3-azabicyclo[3.1.0]hex-6-yl}methyl)amino]methyl}benzyl)amino](phenyl)acetate], the IC50 in the experiment on U937 cells (Homo sapiens, U-937, 72-96 h) is 331 to 3300 nM; in experiment [1], less than 100 nM; with HeLa cells (Homo sapiens), 331 to 3300 nM; in the experiment on HUT cells it was 331 to 3300 nM.

Regarding `O=C(NO)c1cnc(N2CCC(CNCc3ccc(CN[C@H](C(=O)OC4CCCC4)C4CCCCC4)cc3)CC2)nc1` [Example 38, Cyclopentyl (2S)-cyclohexyl[(4-{[({1-[5-(hydroxycarbamoyl)pyrimidin-2-yl]piperidin-4-yl}methyl)amino]methyl}benzyl)amino]acetate], the half-maximal inhibitory concentration (IC50) with U937 cells (Homo sapiens, U-937, 72-96 h) is less than 330 nM; in experiment [1], less than 100 nM; with HeLa cells (Homo sapiens) it was less than 330 nM; in the experiment with HUT cells, 331 to 3300 nM.

Usually IC50 stands for the midpoint of a concentration-inhibition curve. Read a low IC50 as higher potency.

For the origin of these results see patent US8962825B2, “Hydroxamates as inhibitors of histone deacetylase” (GlaxoSmithKline Intellectual Property Development Limited, priority 2006, dated 2015).
